Test results reported in US9440901B2, “Method for producing reduced coenzyme Q10” (KANEKA CORPORATION, priority 2012, dated 2016).

Legend:
[1] = background statement; cited from earlier work
[2] = solubility of the crystal forms of reduced coenzyme Q10; type: physicochemical; conditions: compared to Form I crystal

| SMILES | oral absorbability compared to oxidized coenzyme Q10 [1] | solubility compared with conventional reduced coenzyme Q10 crystals (Form I) [2] |
| --- | --- | --- |
| COc1c(O)c(C)c(C/C=C(\C)CC/C=C(\C)CC/C=C(\C)CC/C=C(\C)CC/C=C(\C)CC/C=C(\C)CC/C=C(\C)CC/C=C(\C)CC/C=C(\C)CCC=C(C)C)c(O)c1OC [reduced coenzyme Q10] | high oral absorbability | – |
| COc1c(O)c(C)c(C/C=C(\C)CC/C=C(\C)CC/C=C(\C)CC/C=C(\C)CC/C=C(\C)CC/C=C(\C)CC/C=C(\C)CC/C=C(\C)CC/C=C(\C)CCC=C(C)C)c(O)c1OC [Form II, reduced coenzyme Q10] | – | lower solubility |
